The target in one assay is T1, human orexin-2 receptor (Homo sapiens, UniProt O43614).
T1 construct: expressed in transfected cells; host or cells: CHO cells (G418 selection)
T1 sequence (O43614 1-444): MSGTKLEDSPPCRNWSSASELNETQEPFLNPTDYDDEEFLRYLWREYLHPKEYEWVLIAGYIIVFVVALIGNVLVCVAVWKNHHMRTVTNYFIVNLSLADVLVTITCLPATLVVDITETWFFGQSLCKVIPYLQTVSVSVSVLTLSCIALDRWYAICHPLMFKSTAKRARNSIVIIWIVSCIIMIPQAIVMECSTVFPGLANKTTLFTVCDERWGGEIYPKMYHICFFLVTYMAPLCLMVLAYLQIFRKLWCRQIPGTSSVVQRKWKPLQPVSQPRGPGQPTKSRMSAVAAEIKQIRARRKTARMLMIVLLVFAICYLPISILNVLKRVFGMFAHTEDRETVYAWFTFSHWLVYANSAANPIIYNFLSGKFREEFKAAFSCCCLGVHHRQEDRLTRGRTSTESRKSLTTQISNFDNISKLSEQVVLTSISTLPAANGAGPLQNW
In words: Intracellular calcium measurements (FLIPR), orexin receptor antagonistic activity. Particulars: read-out: IC50 OX2. It is filed as cell-based. Here is the method:
(§1) The orexin receptor antagonistic activity of the compounds of formula (II) is determined in accordance with the following experimental method.
(§2) Intracellular Calcium Measurements:
(§3) Chinese hamster ovary (CHO) cells expressing the human orexin-1 receptor and the human orexin-2 receptor, respectively, are grown in culture medium (Ham F-12 with L-Glutamine) containing 300 μg/ml G418, 100 U/ml penicillin, 100 μg/ml streptomycin and 10% inactivated fetal calf serum (FCS). The cells are seeded at 80'000 cells/well into 96-well black clear bottom sterile plates (Costar) which have been precoated with 1% gelatine in Hanks' Balanced Salt Solution (HBSS). All reagents are from Gibco BRL. The seeded plates are incubated overnight at 37° C. in 5% CO2.
(§4) Human orexin-A as an agonist is prepared as 1 mM stock solution in methanol:water (1:1), diluted in HBSS containing 0.1% bovine serum albumin (BSA) and 2 mM HEPES for use in the assay at a final concentration of 10 nM.
(§5) Antagonists are prepared as 10 mM stock solution in DMSO, then diluted in 96-well plates, first in DMSO, then in HBSS containing 0.1% bovine serum albumin (BSA) and 2 mM HEPES.
(§6) On the day of the assay, 100 μl of loading medium (HBSS containing 1% FCS, 2 mM HEPES, 5 mM probenecid (Sigma) and 3 μM of the fluorescent calcium indicator fluo-3 AM (1 mM stock solution in DMSO with 10% pluronic acid) (Molecular Probes) is added to each well.
(§7) The 96-well plates are incubated for 60 min at 37° C. in 5% CO2. The loading solution is then aspirated and cells are washed 3 times with 200 μl HBSS containing 2.5 mM probenecid, 0.1% BSA, 2 mM HEPES. 100 μl of that same buffer is left in each well.
(§8) Within the Fluorescent Imaging Plate Reader (FLIPR, Molecular Devices), antagonists are added to the plate in a volume of 50 μl, incubated for 20 min and finally 100 μl of agonist is added. Fluorescence is measured for each well at 1 second intervals, and the height of each fluorescence peak is compared to the height of the fluorescence peak induced by 10 nM orexin-A with buffer in place of antagonist.

The next assay deals with T2, human orexin-1 receptor (Homo sapiens, UniProt O43613).
T2 construct: expressed in transfected cells; host or cells: CHO cells (G418 selection)
T2 sequence (O43613 1-425): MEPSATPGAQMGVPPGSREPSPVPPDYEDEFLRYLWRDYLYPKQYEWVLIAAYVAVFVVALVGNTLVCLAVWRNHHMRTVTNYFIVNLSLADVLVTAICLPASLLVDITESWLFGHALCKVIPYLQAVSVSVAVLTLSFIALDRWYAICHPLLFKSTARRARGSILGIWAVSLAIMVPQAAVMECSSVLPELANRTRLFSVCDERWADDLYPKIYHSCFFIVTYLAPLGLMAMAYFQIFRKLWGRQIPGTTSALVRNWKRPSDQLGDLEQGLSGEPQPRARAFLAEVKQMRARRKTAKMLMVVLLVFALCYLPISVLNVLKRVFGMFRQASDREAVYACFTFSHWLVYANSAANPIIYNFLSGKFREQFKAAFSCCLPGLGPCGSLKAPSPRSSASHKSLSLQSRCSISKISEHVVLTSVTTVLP
Described as above. Particulars: CHO cells expressing human orexin-1 receptor; agonist 10 nM human orexin-A; fluo-3 calcium signal; read-out: IC50 OX1. It is filed as cell-based. Here is the method:
as §1, §2, §3, §4, §5, §6, §7, §8

Where [1] appears, read: CHO cells expressing human orexin-2 receptor, agonist 10 nM human orexin-A, fluo-3 calcium signal.

Molecules are shown by their SMILES. Read-outs that look alike come from different tables or passages of the source.

For `CCn1nc(C)c2c1CCCN([C@@H](C(=O)NC)c1ccccc1)[C@H]2CCc1cc(F)c(C(F)(F)F)c(F)c1` [Example 1 (4S;2′R), (R)-2′-{(S)-4-[2-(3,5-difluoro-4-trifluoromethyl-phenyl)-ethyl]-1-ethyl-3-methyl-4,6,7,8-tetrahydro-1H-1,2,5-triaza-azulen-5-yl}-N-methyl-2′-phenyl-acetamide], the values for the IC50 at human orexin-2 receptor (setting [1]) and at human orexin-1 receptor were 12 nM and 22 nM, respectively.
In the same order, the values of `CCn1nc(C)c2c1CCCN([C@@H](C(=O)NC)c1ccccc1)[C@H]2CCc1ccc(C)c(C)c1` [Example 2 (4S;2′R), (R)-2′-{(S)-4-[2-(3,4-dimethyl-phenyl)-ethyl]-1-ethyl-3-methyl-4,6,7,8-tetrahydro-1H-1,2,5-triaza-azulen-5-yl}-N-methyl-2′-phenyl-acetamide] are 6 nM and 36 nM.
Take `CCn1nc(C)c2c1CCCN([C@@H](C(=O)NC)c1ccccc1)[C@H]2CCc1ccc(C(F)(F)F)cc1F` [Example 3 (4S;2′R), (R)-2′-{1-ethyl-(S)-4-[2-(2-fluoro-4-trifluoromethyl-phenyl)-ethyl]-3-methyl-4,6,7,8-tetrahydro-1H-1,2,5-triaza-azulen-5-yl}-N-methyl-2′-phenyl-acetamide]: the values for the IC50 on human orexin-2 receptor (setting [1]) and at human orexin-1 receptor were 18 nM and 138 nM, respectively.
For the compound `CCn1nc(C)c2c1CCCN([C@@H](C(=O)NC)c1ccccc1)[C@H]2CCc1cc(F)c(C)c(F)c1` [Example 4 (4S;2′R), (R)-2′-{(S)-4-[2-(3,5-difluoro-4-methyl-phenyl)-ethyl]-1-ethyl-3-methyl-4,6,7,8-tetrahydro-1H-1,2,5-triaza-azulen-5-yl}-N-methyl-2′-phenyl-acetamide], the IC50 at human orexin-2 receptor was determined as 6 nM; at human orexin-1 receptor, 26 nM.

The values above are taken from patent US20100029617A1, “1,4,5,6,7,8-HEXAHYDRO-1,2,5-TRIAZA-AZULENE DERIVATIVES AS OREXIN RECEPTOR ANTAGONISTS” (Actelion Pharmaceuticals Ltd., priority 2006, published 2010).
